Assay results as given in the NIST ThermoML archive (doi:10.1016/j.jct.2016.08.010).
Numbers after ± are expanded uncertainties.

Legend:
[1] = xn = mol fraction of the nth substance listed; conditions: 100 kPa, Liquid; for speed of sound: Frequency=3 MHz, Sing-around technique in a fixed-path interferometer; for mass density: Vibrating tube method
[2] = excess molar enthalpy (molar enthalpy of mixing); xn = mol fraction of the nth substance listed; conditions: 298.15 K, 100 kPa, Liquid, Power-compensation calorimetry

CCCCn1cc[n+](C)c1C.F[B-](F)(F)F [1-butyl-2,3-dimethylimidazolium tetrafluoroborate] + CCn1cc[n+](C)c1.F[B-](F)(F)F
[1]
Conditions	mass density, 293.15 K [kg/m3]	mass density, 298.15 K [kg/m3]	mass density, 303.15 K [kg/m3]	mass density, 308.15 K [kg/m3]	speed of sound, 293.15 K [m/s]	speed of sound, 298.15 K [m/s]	speed of sound, 303.15 K [m/s]	speed of sound, 308.15 K [m/s]
x1 = 0.0952	1270.9 ± 2	1267.3 ± 2	1264.1 ± 2	1260.5 ± 2	1636.2 ± 1.6	1624.1 ± 1.6	1611.9 ± 1.6	1600.4 ± 1.6
x1 = 0.1386	1265.5 ± 2	1262.1 ± 2	1259 ± 2	1255.6 ± 2	1638.2 ± 1.6	1626 ± 1.6	1613.7 ± 1.6	1602.1 ± 1.6
x1 = 0.1754	1261.2 ± 2	1257.9 ± 2	1255 ± 2	1251.7 ± 2	1639.8 ± 1.6	1627.4 ± 1.6	1615.1 ± 1.6	1603.4 ± 1.6
x1 = 0.2361	1254.5 ± 2	1251.5 ± 2	1248.7 ± 2	1245.7 ± 2	1642.2 ± 1.6	1629.6 ± 1.6	1617.2 ± 1.6	1605.3 ± 1.6
x1 = 0.2819	1249.8 ± 2	1247 ± 2	1244.3 ± 2	1241.4 ± 2	1643.8 ± 1.6	1631.1 ± 1.6	1618.5 ± 1.6	1606.6 ± 1.6
x1 = 0.3347	1244.7 ± 2	1242.1 ± 2	1239.5 ± 2	1236.7 ± 2	1645.4 ± 1.6	1632.5 ± 1.6	1619.9 ± 1.6	1607.9 ± 1.6
x1 = 0.3722	1241.3 ± 2	1238.8 ± 2	1236.3 ± 2	1233.6 ± 2	1646.5 ± 1.6	1633.5 ± 1.6	1620.8 ± 1.6	1608.7 ± 1.6
x1 = 0.4192	1237.2 ± 2	1234.9 ± 2	1232.4 ± 2	1229.9 ± 2	1647.7 ± 1.6	1634.6 ± 1.6	1621.8 ± 1.6	1609.7 ± 1.6
x1 = 0.4451	1235.1 ± 2	1232.8 ± 2	1230.4 ± 2	1227.9 ± 2	1648.3 ± 1.6	1635.1 ± 1.6	1622.4 ± 1.6	1610.2 ± 1.6
x1 = 0.4807	1232.2 ± 2	1230 ± 2	1227.7 ± 2	1225.2 ± 2	1649.1 ± 1.6	1635.8 ± 1.6	1623 ± 1.6	1610.8 ± 1.6
x1 = 0.5327	1228.2 ± 2	1226.1 ± 2	1223.8 ± 2	1221.4 ± 2	1650.2 ± 1.6	1636.8 ± 1.6	1623.9 ± 1.6	1611.7 ± 1.6
x1 = 0.5785	1224.8 ± 2	1222.8 ± 2	1220.5 ± 2	1218.2 ± 2	1651 ± 1.6	1637.6 ± 1.6	1624.7 ± 1.6	1612.4 ± 1.5
x1 = 0.6364	1220.6 ± 2	1218.7 ± 2	1216.4 ± 2	1214.2 ± 2	1652.1 ± 1.6	1638.5 ± 1.5	1625.6 ± 1.5	1613.2 ± 1.5
x1 = 0.6729	1218 ± 2	1216.1 ± 2	1213.9 ± 2	1211.7 ± 2	1652.7 ± 1.6	1639.1 ± 1.5	1626.1 ± 1.5	1613.7 ± 1.5
x1 = 0.7342	1213.7 ± 2	1211.8 ± 2	1209.7 ± 2	1207.6 ± 2	1653.8 ± 1.5	1640.1 ± 1.5	1627.1 ± 1.5	1614.6 ± 1.5
x1 = 0.7738	1210.9 ± 2	1209 ± 2	1206.9 ± 2	1204.9 ± 2	1654.5 ± 1.5	1640.8 ± 1.5	1627.7 ± 1.5	1615.2 ± 1.5
x1 = 0.8254	1207.2 ± 2	1205.4 ± 2	1203.2 ± 2	1201.3 ± 2	1655.5 ± 1.5	1641.7 ± 1.5	1628.6 ± 1.5	1616.1 ± 1.5
x1 = 0.8739	1203.6 ± 2	1201.8 ± 2	1199.7 ± 2	1197.8 ± 2	1656.5 ± 1.5	1642.7 ± 1.5	1629.5 ± 1.5	1616.9 ± 1.5
x1 = 1	1193.5 ± 2	1191.8 ± 2	1189.7 ± 2	1187.9 ± 2	1659.7 ± 1.5	1645.7 ± 1.5	1632.5 ± 1.5	1619.8 ± 1.5

[2]
Conditions	excess molar enthalpy [kcal/mol]
x1 = 0.0907	-0.0636 ± 0.00143
x1 = 0.1357	-0.0796 ± 0.00167
x1 = 0.1849	-0.088 ± 0.00191
x1 = 0.2377	-0.0856 ± 0.00191
x1 = 0.2839	-0.0762 ± 0.00167
x1 = 0.3341	-0.0593 ± 0.00143
x1 = 0.3729	-0.0437 ± 0.000956
x1 = 0.4351	-0.0139 ± 0.000406
x1 = 0.4972	0.0184 ± 0.000478
x1 = 0.5483	0.0452 ± 0.000956
x1 = 0.5967	0.0684 ± 0.00143
x1 = 0.6417	0.0884 ± 0.00191
x1 = 0.6978	0.105 ± 0.00239
x1 = 0.7424	0.114 ± 0.00239
x1 = 0.7909	0.117 ± 0.00263
x1 = 0.8345	0.109 ± 0.00239
x1 = 0.8758	0.0958 ± 0.00215
x1 = 0.9035	0.0829 ± 0.00191
